{
  "source": "patent US10023575B2",
  "about": "“Cyclic ether derivatives of pyrazolo[1,5-a]pyrimidine-3-carboxyamide” (Boehringer Ingelheim International GmbH, priority 2015, dated 2018)",
  "key": {"[1]": {"experiment": "Plasma protein binding with equilibrium dialysis, human plasma", "format": "in vitro ADME", "settings": "human plasma, 1.0 μM, equilibrium dialysis 2 hours 37° C.", "source_text": "(§1) Plasma Protein Binding (Determination of Human and Rat Plasma Protein Binding with Equilibrium Dialysis)\n(§2) This equilibrium dialysis (ED) technique is used to determine the approximate in vitro fractional binding of test compounds to human and rat plasma proteins.\n(§3) Dianorm Teflon dialysis cells (micro 0.2) are used. Each cell consists of a donor and an acceptor chamber, separated by an ultrathin semipermeable membrane with a 5 kDa molecular weight cutoff.\n(§4) Stock solutions for each test compound are prepared in DMSO at 1 mM and diluted to a final concentration of 1.0 μM. The subsequent dialysis solutions are prepared in pooled human and rat plasma (with NaEDTA)\n(§5) Aliquots of 200 μL dialysis buffer (100 mM potassium phosphate, pH 7.4) are dispensed into the buffer chamber. Aliquots of 200 μL test compound dialysis solution are dispensed into the plasma chambers. Incubation is carried out for 2 hours under rotation at 37° C.\n(§6) At the end of the dialysis period, the dialysate is transferred into reaction tubes. The tubes for the buffer fraction contain 0.2 ml Acetonitril/water (80/20). Aliquots of 25 μl of the plasma dialysate are transferred into deep well plates and mixed with 25 μl Acetonitril/water (80/20), 25 μl buffer, 25 μl calibration solution and 25 μl Internal Standard solution. Protein precipitation is done by adding 200 μl Acetonitrile. Aliquots of 50 μl of the buffer dialysate are transferred into deep well plates and mixed with 25 μl blank plasma, 25 μl Internal Standard solution and 200 μl Acetonitril. Samples are measured on HPLC-MS/MS-Systems and evaluated with Analyst-Software.\n(§7) Percent bound is calculated with the formula: % bound=(plasma concentration−buffer concentration/plasma concentration)×100 and % free is calculated as difference."}, "[2]": {"experiment": "Metabolic stability in pooled human liver microsomes", "format": "in vitro ADME", "settings": "human liver microsomes, 1 mg/mL protein, 1 μM compound, 37° C.", "method": "The metabolic degradation of the test compound was assayed at 37° C. with pooled liver microsomes from various species. The final incubation volume of 100 μl per time point contains TRIS buffer pH 7.6 at room temperature (0.1 M), magnesium chloride (5 mM), microsomal protein (1 mg/mL for human and dog, 0.5 mg/mL for other species) and the test compound at a final concentration of 1 μM. Following a short preincubation period at 37° C., the reactions were initiated by addition of betanicotinamide adenine dinucleotide phosphate, reduced form (NADPH, 1 mM), and terminated by transferring an aliquot into solvent after different time points. […] The half-life was determined by the slope of the semi-logarithmic plot of the concentration-time profile."}, "PDE10": {"target": "PDE10 (Homo sapiens (Human), UniProt Q9Y233)", "sequence (Q9Y233 whole entry)": "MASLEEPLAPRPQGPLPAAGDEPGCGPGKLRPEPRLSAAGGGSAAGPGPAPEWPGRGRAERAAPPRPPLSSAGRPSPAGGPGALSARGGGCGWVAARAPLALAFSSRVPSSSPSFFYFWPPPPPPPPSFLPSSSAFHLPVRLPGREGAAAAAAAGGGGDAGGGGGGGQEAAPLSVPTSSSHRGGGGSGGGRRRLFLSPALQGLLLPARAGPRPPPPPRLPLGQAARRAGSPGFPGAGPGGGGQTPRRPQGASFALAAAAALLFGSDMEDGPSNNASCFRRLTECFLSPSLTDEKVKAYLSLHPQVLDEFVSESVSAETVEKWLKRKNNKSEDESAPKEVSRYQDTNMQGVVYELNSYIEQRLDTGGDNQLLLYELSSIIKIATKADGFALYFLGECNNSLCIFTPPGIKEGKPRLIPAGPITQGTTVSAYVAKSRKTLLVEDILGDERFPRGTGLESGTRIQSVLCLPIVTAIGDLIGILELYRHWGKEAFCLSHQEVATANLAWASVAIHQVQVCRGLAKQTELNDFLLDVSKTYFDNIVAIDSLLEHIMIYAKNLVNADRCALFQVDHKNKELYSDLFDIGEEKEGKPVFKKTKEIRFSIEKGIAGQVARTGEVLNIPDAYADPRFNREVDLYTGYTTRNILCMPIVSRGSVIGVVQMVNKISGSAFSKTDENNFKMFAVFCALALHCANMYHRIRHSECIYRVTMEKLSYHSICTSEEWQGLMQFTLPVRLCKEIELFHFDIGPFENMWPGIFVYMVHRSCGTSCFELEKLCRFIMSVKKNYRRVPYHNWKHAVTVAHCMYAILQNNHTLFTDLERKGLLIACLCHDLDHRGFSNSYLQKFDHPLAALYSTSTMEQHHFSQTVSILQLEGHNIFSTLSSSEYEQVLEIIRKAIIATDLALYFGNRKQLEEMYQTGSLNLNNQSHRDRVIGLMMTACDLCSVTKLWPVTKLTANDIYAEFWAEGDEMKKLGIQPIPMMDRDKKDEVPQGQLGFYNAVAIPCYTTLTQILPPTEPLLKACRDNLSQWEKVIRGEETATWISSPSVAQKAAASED", "experiment": "Phosphodiesterase (PDE) 10 assay with fluorescent substrate (IMAP, fluorescence polarization)", "format": "biochemical", "settings": "labeled cAMP 30 nM"}, "[3]": {"experiment": "Plasma protein binding with equilibrium dialysis, rat plasma", "format": "in vitro ADME", "settings": "rat plasma, 1.0 μM, equilibrium dialysis 2 hours 37° C.", "source_text": "as §1, §2, §3, §4, §5, §6, §7"}, "[4]": {"test_system": "MDCK-MDR1 cell monolayers", "experiment": "Assessment of efflux in MDCK cells transfected with the human MDR1 gene (MDCK assay)", "format": "in vitro ADME, canine", "settings": "MDCK-MDR1, apical-to-basal, pH 7.4, 37° C.", "method": "Assessment of Efflux in Madin-Darby Canine Kidney Cells Transfected with the Human MDR1 Gene (MDCK Assay)\nApparent permeability coefficients (PE) of the compounds across the MDCK-MDR1 cell monolayers are measured (pH 7.4, 37° C.) in apical-to-basal (AB) and basal-to-apical (BA) transport direction. AB permeability (PEAB) represents drug absorption from the blood into the brain and BA permeability (PEBA) drug efflux from the brain back into the blood via both passive permeability as well as active transport mechanisms mediated by efflux and uptake transporters that are expressed on the MDCK-MDR1 cells, predominantly by the overexpressed human MDR1 P-gp. The compounds are assigned to permeability/absorption classes by comparison of the AB permeabilities with the AB permeabilities of reference compounds with known in vitro permeability and oral absorption in the human. Identical or similar permeabilities in both transport directions indicate passive permeation, vectorial permeability points to additional active transport mechanisms. Higher PEBA than PEAB indicates the involvement of active efflux mediated by MDR1 P-gp. Active transport is concentration-dependently saturable.\nMDCK-MDR1 cells (1-2×10e5 cells/1 cm2 area) are seeded on filter inserts (Costar transwell polycarbonate or PET filters, 0.4 μm pore size) and cultured (DMEM) for 7 days. Subsequently, the MDR1 expression is boosted by culturing the cells with 5 mM sodium butyrate in full medium for 2 days. Compounds are dissolved in appropriate solvent (like DMSO, 1-20 mM stock solutions). […] The transport solution (TL) is applied to the apical or basolateral donor side for measuring A-B or B-A permeability (3 filter replicates), respectively. The receiver side contains the same buffer as the donor side. Samples are collected at the start and end of experiment from the donor and at various time intervals for up to 2 hours also from the receiver side for concentration measurement by HPLC-MS/MS or scintillation counting. Sampled receiver volumes are replaced with fresh receiver solution. Efflux ratio is calculated dividing the Papp (b-a) values by the Papp (a-b) values."}},
  "data": [
    {"smiles": "Cc1cnc2c(C(=O)NC3(c4ccc(C(F)(F)F)cc4F)CCOCC3O)cnn2c1", "note": "(single isomer, unassigned) [Example 81b]", "values": [
      {"measurement": "PPB HUM % BINDING", "setting": "[1]", "value": 65.3, "unit": "%"},
      {"measurement": "Half-life t½ human", "setting": "[2]", "value": ">2.17", "unit": "h"},
      {"measurement": "IC50", "setting": "PDE10", "value": "> 10", "unit": "µM"},
      {"measurement": "PPB RAT % BINDING", "setting": "[3]", "value": 66.2, "unit": "%"},
      {"measurement": "Papp (a-b) mean", "setting": "[4]", "value": "64 10-6 cm/s"}
    ]}
  ]
}
